Measured values: ChEMBL document CHEMBL5726990, “Thiazolidinones as cellular anandamide uptake inhibitors and their use in the treatment of psychiatric or neurological disorders and inflammation, in particular neuroinflammation” (2019)

Test: [3H]-AEA Cellular Uptake: Screening for AEA cellular uptake inhibition was performed in a semi-automated procedure: Pipetting and washing steps were performed by a Biomek3000 laboratory workstation. First, required amounts of U937 cells were centrifuged at 100×g for 5 min and resuspended in RPMI (37° C.) to a final concentration of 2×10^6 cells/mL. Then, 250 μL of cell suspension (0.5×10^6 cells per sample) were transferred into AquaSil™ silanized glass vials (Chromacol 1.1-MTV) in 96-well format. After addition of 5 μL vehicle (DMSO) or compounds the cells were incubated at 37° C. for 15 min. As positive controls OMDM-2 and UCM707 were used at 10 μM in each run. The ETI-T compounds were measured at up to 7 concentrations in triplicates from 100 pM-100 μM. After pre-incubation, a mixture of 0.5 nM[ethanolamine-1-3H]-AEA, (60 Ci/mmol) and 99.5 nM of cold AEA (final 100 nM) was added and samples were incubated at 37° C. for another 15 min. The reaction was stopped by rapid filtration over UniFilter-96 GF/C filters (PerkinElmer) pre-soaked with PBS 0.25% BSA. Cells were washed three times with 100 μL ice-cold PBS buffer containing 1% fatty acid free BSA. After drying, 45 μL MicroScint 20 scintillation cocktail (PerkinElmer, Waltham, Mass., US) was added to the wells and the plate was sealed. Radioactivity was measured by liquid scintillation counting on a PerkinElmer Wallac Trilux MicroBeta 1450 during 2 min. Non-specific binding of [3H]AEA (100 nM) to the glass vials was never higher than 10%. IC50 values were calculated by GraphPad® by non-linear regression using the built-in log(inhibitor) vs. response-variable slope (four parameters) function.
Conditions: U-937

| IC50 | SMILES |
| --- | --- |
| 0.145 µM | CC/N=C1\S/C(=C\c2ccc(O)c(OCC)c2)C(=O)N1CC |
| 0.434 µM | O=C1/C(=C/c2ccc(O)cc2)S/C(=N\c2ccccc2)N1OC1=CC=CC1 |
| 0.355 µM | CCCN1C(=O)/C(=C\c2ccc(C(C)C)cc2)S/C1=N\c1ccccc1 |
